Experimental data reported in patent US6335459B1, “Aryl carboxylic acid and aryl tetrazole derivatives as IP receptor modulators” (Syntex (U.S.A.) LLC, priority 1998, dated 2002).
Where a name gives a salt, the structure may show the parent alone.

A melting point of 132.5 to 135 °C was found for `O=C(O)COc1cccc(/C=C\COC(=O)N(c2ccccc2)c2ccccc2)c1` (as salt: salt) [Example 9, Cis-[3-(3-Diphenylcarbamoyloxypropenyl)phenoxy]acetic acid] in this work.

A melting point of 112.5 to 112.8 °C was found for `O=C(O)COc1cccc(/C=C\CCOC(=O)N(c2ccccc2)c2ccccc2)c1` (as salt: salt) [Example 10A, cis-[3-(4-diphenylcarbamoyloxybut-1-enyl)phenoxy]acetic acid tert-butylamine salt] in this work.

A melting point of 107 to 108.5 °C was found for `O=C(O)COc1cccc(/C=C\COC(=O)N(Cc2ccccc2)c2ccccc2)c1` (as salt: salt) [Example 10B, cis-{3-[3-(benzylphenylcarbamoyloxypropenyl)phenoxy]acetic acid tert-butylamine salt] in this work.

A melting point of 131.8 to 132.4 °C was found for `O=C(O)CCc1cccc(/C=C\COC(=O)N(c2ccccc2)c2ccccc2)c1` (as salt: salt) [Example 13, cis-3-[3-(3-Diphenylcarbamoyloxypropenyl)phenyl]propionic acid] in this work.

A melting point of 182.2 to 182.9 °C was found for `O=C(O)COc1cccc(COC(=O)N(c2ccccc2)c2ccccc2)c1Cl` [Example 1, {2-Chloro-3-[(diphenylcarbamoyloxy)methyl]phenoxy}acetic acid] in this work.

A melting point of 180.1 to 180.7 °C was found for `Cc1c(COC(=O)N(c2ccccc2)c2ccccc2)cccc1OCC(=O)O` [Example 2, {3-[(Diphenylcarbamoyloxy)methyl]-2-methylphenoxy}acetic acid] in this work.

A melting point of 142.2 to 143.8 °C was found for `O=C(O)COc1cccc(COC(=O)N(c2ccccc2)c2ccccc2)c1` [Example 4, {3-[(Diphenylcarbamoyloxy)methyl]phenoxy}acetic acid] in this work.

A melting point of 112.4 to 113.7 °C was found for `O=C(O)COc1cccc(/C=C/COC(=O)N(c2ccccc2)c2ccccc2)c1` [Example 6, Trans-[3-(3-Diphenylcarbamoyloxypropenyl)phenoxy}acetic acid] in this work.

A melting point of 133.4 to 135.5 °C was found for `Cc1c(/C=C\COC(=O)N(c2ccccc2)c2ccccc2)cccc1OCC(=O)O` [Example 8, Cis-[3-(3-Diphenylcarbamoyloxypropenyl)-2-methylphenoxy]acetic acid] in this work.

A melting point of 102 to 106 °C was found for `CC(C)(C)N.O=C(O)CCCOc1cccc(/C=C\COC(=O)N(c2ccccc2)c2ccccc2)c1` [Example 10A, cis-4-[3-(3-diphenylcarbamoyloxypropenyl)phenoxy]butyric acid tert-butylamine salt] in this work.

A melting point of 56.3 to 56.7 °C was found for `O=C(O)CCCCOc1cccc(/C=C\COC(=O)N(c2ccccc2)c2ccccc2)c1` [Example 10A, cis-5-[3-(3-diphenylcarbamoyloxypropenyl)phenoxy]pentanoic acid] in this work.

A melting point of 87 to 88.5 °C was found for `CC(C)(C)N.O=C(O)COc1cccc(/C=C\CCCCOC(=O)N(c2ccccc2)c2ccccc2)c1` [Example 10A, cis-[3-(6-diphenylcarbamoyloxyhex-1-enyl)phenoxy]acetic acid tert-butylamine salt] in this work.

A melting point of 123 to 123.3 °C was found for `O=C(O)Cc1cccc(CCOC(=O)N(c2ccccc2)c2ccccc2)c1` [Example 12, [3-(2-diphenylcarbamoyloxyethyl)phenyl]acetic acid] in this work.

A melting point of 128.7 to 129.2 °C was found for `Cc1c(CCCOC(=O)N(c2ccccc2)c2ccccc2)cccc1CC(=O)O` [Example 12, [3-(3-diphenylcarbamoyloxypropyl)-2-methylphenyl]acetic acid] in this work.

A melting point of 117.8 to 119.6 °C was found for `O=C(O)Cc1cccc(CCCCOC(=O)N(c2ccccc2)c2ccccc2)c1` [Example 12, [3-(4-diphenylcarbamoyloxybutyl)phenyl]acetic acid] in this work.

A melting point of 128.1 to 128.7 °C was found for `O=C(O)Cc1cccc(CCCCCOC(=O)N(c2ccccc2)c2ccccc2)c1` [Example 12, [3-(5-diphenylcarbamoyloxypentyl)phenyl]acetic acid] in this work.

A melting point of 99.8 to 101.7 °C was found for `O=C(O)Cc1cccc(CCCCCCOC(=O)N(c2ccccc2)c2ccccc2)c1` [Example 12, [3-(6-diphenylcarbamoyloxyhexyl)phenyl]acetic acid] in this work.

A melting point of 151.2 to 153.1 °C was found for `CC(C)(C)N.O=C(O)Cc1cccc(/C=C\CCOC(=O)N(c2ccccc2)c2ccccc2)c1` [Example 14A, cis-[3-(4-diphenylcarbamoyloxybut-1-enyl)phenyl]acetic acid tert-butylamine salt] in this work.

A melting point of 180.5 to 184 °C was found for `CC(C)(C)N.O=C(O)c1cccc(/C=C\COC(=O)N(c2ccccc2)c2ccccc2)c1` [Example 14B, cis-3-(3-diphenylcarbamoyloxypropenyl)benzoic acid tert-butylamine salt] in this work.

A melting point of 172.8 to 176.8 °C was found for `CC(C)(C)N.O=C(O)c1cccc(/C=C\CCOC(=O)N(c2ccccc2)c2ccccc2)c1` [Example 14B, cis-3-(4-diphenylcarbamoyloxybut-1-enyl)benzoic acid tert-butylamine salt] in this work.

A melting point of 112.3 to 113.1 °C was found for `CC(C)(C)N.CC(CCc1cccc(CC(=O)O)c1)OC(=O)N(c1ccccc1)c1ccccc1` (stereo not drawn) [Example 14C, [3-(3-diphenylcarbamoyloxybutyl)phenyl]acetic acid tert-butylamine salt] in this work.
